Data set [1] in a line: Pharmacokinetics (biodistribution 1-24 h) in non-tumor bearing mice. In kind it is in vivo. The note with it: for tissue uptake at 1 h / tissue uptake at 4 h / tissue uptake at 12 h / tissue uptake at 24 h: female, BALB/c, mouse, 200 umol, total radioactivity; for tissue uptake at 1 h: 1 hour after injection; for tissue uptake at 1 h / tissue uptake at 4 h: ^61Cu; for tissue uptake at 4 h: 4 hours after injection; for tissue uptake at 12 h: 12 hours after injection; for tissue uptake at 12 h / tissue uptake at 24 h: ^64Cu; for tissue uptake at 24 h: 24 hours after injection. As for the experimental part:
The biodistribution at the investigate time points was performed as described in the Example 9. The data were combined with the results obtained from the groups of xenografts at 1 hour and 4 hours p.i., as the biodistribution in nude mice was the same as in the healthy mice. The results were expressed as described in the Example 10.

Data set [2] can be described thus: Lipophilicity, log D by shake-flask method (1-octanol/PBS pH 7.4). The note with it: Table 17, mean ± SD. In kind it is physicochemical. How it is done:
The radiotracer (1 μM) was added to a 50:50 pre-saturated mixture of 1-octanol and phosphate buffered saline (PBSpH 7.4). The solution was vortexed for 30 min and then centrifuged at 3,000 rpm to achieve a phase separation. Aliquots from each phase were collected and measured in a gamma-counter. The distribution coefficient was calculated as the average of the logarithmic values of the ratio between the radioactivity in the organic and the PBS phase.
Table 17. Lipophilicity expressed as the log distribution coefficient D (log D(Octanol/PBS pH7.4)) of ^61Cu-radiotracers versus ^68Ga-radiotracers (reference radiotracers).
In a pre-lubricated Eppendorf tube, a pre-saturated mixture of 500 μL of 1-octanol and 500 μL of PBS pH 7.4 (phosphate-buffered saline) were added. An aliquot of […] in 10 μL of the radioligand was added to this mixture, shaken for 30 min, and then centrifuged at 3000 rcf for 10 min to achieve phase separation. Aliquots of 100 μL were removed from the 1-octanol and from the PBS phases, and the activity was measured in a […]. The partition coefficient was calculated as the average log ratio value of the radioactivity in the organic fraction and PBS fraction.

In the next data set the test system is LNCaP xenografts. The data set can be described thus: Quantitative biodistribution in LNCaP xenografted mice. In kind it is in vivo. The note with it: for Biodistribution Adrenal / Biodistribution Blood / Biodistribution Bone / Biodistribution Heart / Biodistribution Intestine / Biodistribution Kidney / Biodistribution LNCaP-tumor / Biodistribution Liver / Biodistribution Lung / Biodistribution Muscle / Biodistribution Pancreas / Biodistribution Salivary gland / Biodistribution Spleen / Biodistribution Stomach / Ratio Tumor/Blood / Ratio Tumor/Kidney / Ratio Tumor/Liver / Ratio Tumor/Muscles: LNCap xenograft mice.

Another data set can be described thus: in vivo. The note with it: athymic nude Foxn1+Foxn1+, mouse, iv, 200 umol, total radioactivity.
[3] abbreviates: adrenal, read-out: Biodistribution Adrenal.
Setting [4] is: blood, read-out: Biodistribution Blood.
Where [5] appears, read: femur, read-out: Biodistribution Femur.
The mark [6] stands for this setting: heart, read-out: Biodistribution Heart.
The mark [7] stands for this setting: intestine, read-out: Biodistribution Intestine.
Setting [8] is: kidneys, read-out: Biodistribution Kidneys.
The mark [9] stands for this setting: liver, read-out: Biodistribution Liver.
The mark [10] stands for this setting: lung, read-out: Biodistribution Lung.
[11] abbreviates: muscle, read-out: Biodistribution Muscles.
Where [12] appears, read: pancreas, read-out: Biodistribution Pancreas.
[13] abbreviates: pituitary, read-out: Biodistribution Pituitary.
The mark [14] stands for this setting: spleen, read-out: Biodistribution Spleen.
Where [15] appears, read: stomach, read-out: Biodistribution Stomach.

Read-outs that look alike come from different tables or passages of the source.

Method for LNCaP xenografts: (§1) The mice were randomly distributed in groups and euthanized at 1 and at 4 hours post-injection. The organs of interest were collected, rinsed, blotted, weighed and counted in a gamma counter. The results are expressed as percentage of injected activity per gram (% IA/g), representing the mean±standard deviation of n=4-8 mice per group and they were obtained by extrapolation from counts of an aliquot taken from the injected solution as standard.
The biodistribution of the [^61Cu]Cu-NODAGA radiotracers was compared with the reference compounds used in patients under identical experimental conditions. The mice were randomly distributed in groups, injected with the radiotracer under investigation and euthanized at 1 and at 4 hours post-injection of the radiotracers under investigation. The organs of interest were collected, rinsed, blotted, weighed and counted in a gamma counter. The results are expressed as percentage of injected activity per gram (% IA/g), representing the mean±standard deviation of all mice per group and they were obtained by extrapolation from counts of an aliquot taken from the injected solution as standard.
Method for in vivo: The tumors were allowed to grow for 1-3 weeks before commencement of the experiments.
as §1
The mice were randomly distributed in groups, injected with the radiotracer under investigation and euthanized at 1 and at 4 hours post-injection of the radiotracers under investigation. The organs of interest were collected, rinsed, blotted, weighed and counted in a gamma counter. The results are expressed as percentage of injected activity per gram (% IA/g), representing the mean±standard deviation of all mice per group and they were obtained by extrapolation from counts of an aliquot taken from the injected solution as standard.
The mice were randomly distributed in groups and euthanized at 4 hours post-injection. The organs of interest were collected, rinsed, blotted, weighed, and their respective radioactivity was counted in a gamma counter.

For the molecule `C[C@@H](O)[C@@H]1NC(=O)[C@H](CCCCN)NC(=O)[C@@H](Cc2c[nH]c3ccccc23)NC(=O)[C@H](Cc2ccc(O)cc2)NC(=O)[C@@H](NC(=O)[C@@H](Cc2ccccc2)NC(=O)CCC(C(=O)O)N2CCN(CC(=O)O)CCN(CC(=O)O)CC2)CSSC[C@@H](C(=O)N[C@H](CO)[C@@H](C)O)NC1=O` (single isomer, unassigned) [[^61/^64Cu]Cu-NODAGA-TOC, metal not drawn], the tissue uptake at 1 h in data set [1] (setting [3]) worked out at 1.06 ± 0.24 %ID/g; in data set [1] (setting [4]) it was 0.24 ± 0.08 %ID/g; in data set [1] (setting [5]), 0.45 ± 0.14 %ID/g; in data set [1] (setting [6]) it was 0.17 ± 0.03 %ID/g; in data set [1] (setting [7]) it was 0.96 ± 0.12 %ID/g; in data set [1] (setting [8]) it was 17.2 ± 4.46 %ID/g. The tissue uptake at 1 h in data set [1] (setting [9]) amounted to 0.35 ± 0.08 %ID/g; in data set [1] (setting [10]), 1.07 ± 0.17 %ID/g; in data set [1] (setting [11]) it was 0.16 ± 0.05 %ID/g; in data set [1] (setting [12]) it was 2.71 ± 0.4 %ID/g; in data set [1] (setting [13]), 3.39 ± 1.11 %ID/g; in data set [1] (setting [14]) it was 0.23 ± 0.04 %ID/g. The tissue uptake at 1 h in data set [1] (setting [15]) is 2.62 ± 0.48 %ID/g. Besides, the tissue uptake at 4 h in data set [1] (setting [3]) amounted to 0.63 ± 0.22 %ID/g; in data set [1] (setting [4]), 0.04 ± 0.02 %ID/g; in data set [1] (setting [5]), 0.28 ± 0.11 %ID/g; in data set [1] (setting [6]) it was 0.07 ± 0.02 %ID/g; in data set [1] (setting [7]) it was 0.69 ± 0.19 %ID/g; in data set [1] (setting [8]), 7.64 ± 3.85 %ID/g. In addition, the tissue uptake at 4 h is 0.28 ± 0.08 %ID/g in data set [1] (setting [9]); 0.5 ± 0.24 %ID/g in data set [1] (setting [10]); 0.07 ± 0.03 %ID/g in data set [1] (setting [11]); 0.6 ± 0.19 %ID/g in data set [1] (setting [12]); 2.71 ± 1.84 %ID/g in data set [1] (setting [13]); 0.1 ± 0.03 %ID/g in data set [1] (setting [14]). The tissue uptake at 4 h in data set [1] (setting [15]) turned out to be 1.35 ± 0.26 %ID/g. In addition, the tissue uptake at 12 h in data set [1] (setting [4]) came to 0.04 ± 0.01 %ID/g; in data set [1] (setting [6]), 0.09 ± 0.02 %ID/g; in data set [1] (setting [11]), 0.02 ± 0.01 %ID/g; in data set [1] (setting [14]), 0.1 ± 0.02 %ID/g. For the same molecule, the tissue uptake at 24 h in data set [1] (setting [4]) turned out to be 0.03 %ID/g; in data set [1] (setting [5]) it was 0.06 ± 0.01 %ID/g; in data set [1] (setting [6]), 0.07 ± 0.02 %ID/g; in data set [1] (setting [11]) it was 0.01 %ID/g; in data set [1] (setting [12]), 0.07 ± 0.01 %ID/g; in data set [1] (setting [14]), 0.07 ± 0.02 %ID/g. Moreover, the blood clearance entry in data set [1] (healthy mice, 1 to 24 hours after injection) is recorded as “very fast blood clearance”.

As for `O=C(O)CC[C@H](NC(=O)N[C@@H](CCCCNC(=O)[C@H](Cc1ccc2ccccc2c1)NC(=O)c1ccc(CNC(=O)[C@H](CCC(=O)O)NC(=O)[C@H](CCC(=O)O)NC(=O)c2ccc([18F])nc2)cc1)C(=O)O)C(=O)O` [[^18F]PSMA-1007], in data set [2] (shake-flask), the “log D(O/PBS pH 7.4)” value is reported as −3.02 ± 0.11. Further, the tumor uptake in the data set with LNCaP xenografts (4h p.i., LNCaP xenograft mice, comparison with reference radiotracer, p=0.0145) is reported as 6.28±2.19 % IA/g. In addition, in the data set on LNCaP xenografts (1 h after injection), the “Biodistribution Adrenal” value came out at 7.18 ± 2.20 % IA/g, the “Biodistribution Blood” value stood at 0.41 ± 0.11 % IA/g, the “Biodistribution Bone” value worked out at 0.94 ± 0.13 % IA/g and the “Biodistribution Heart” value is 1.25 ± 0.29 % IA/g. Further, in the data set with LNCaP xenografts (1 h after injection), the “Biodistribution Intestine” value came to 1.04 ± 0.33 % IA/g, the “Biodistribution Kidney” value came to 100 ± 17 % IA/g, the “Biodistribution LNCaP-tumor” value is reported as 9.70 ± 2.57 % IA/g and the “Biodistribution Liver” value was determined as 0.93 ± 0.26 % IA/g. For the same molecule, in the data set with LNCaP xenografts (1 h after injection), the “Biodistribution Lung” value was found to be 2.08 ± 0.24 % IA/g, the “Biodistribution Muscle” value came to 0.53 ± 0.09 % IA/g, the “Biodistribution Pancreas” value worked out at 1.32 ± 0.58 % IA/g and the “Biodistribution Salivary gland” value was found to be 2.54 ± 0.72 % IA/g. Moreover, in the data set with LNCaP xenografts (1 h after injection), the “Biodistribution Spleen” value was 11.0 ± 1.1 % IA/g, the “Biodistribution Stomach” value amounted to 0.75 ± 0.15 % IA/g, the “Ratio Tumor/Blood” value came to 25.8 ± 11.5 and the “Ratio Tumor/Kidney” value was determined as 0.10 ± 0.03. Further, in the data set with LNCaP xenografts (1 h after injection), the “Ratio Tumor/Liver” value was found to be 11.3 ± 4.5 and the “Ratio Tumor/Muscles” value is listed as 19.2 ± 6.5. In the data set with LNCaP xenografts (4 h after injection), the “Biodistribution Adrenal” value came to 8.03 ± 2.66 % IA/g, the “Biodistribution Blood” value amounted to 0.17 ± 0.04 % IA/g, the “Biodistribution Bone” value is given as 0.62 ± 0.11 % IA/g and the “Biodistribution Heart” value is reported as 0.53 ± 0.23 % IA/g. Also, in the data set with LNCaP xenografts (4 h after injection), the “Biodistribution Intestine” value came to 0.43 ± 0.22 % IA/g, the “Biodistribution Kidney” value came to 132 ± 9 % IA/g, the “Biodistribution LNCaP-tumor” value stood at 6.28 ± 2.19 % IA/g and the “Biodistribution Liver” value amounted to 0.32 ± 0.16 % IA/g. Besides, in the data set on LNCaP xenografts (4 h after injection), the “Biodistribution Lung” value was found to be 1.61 ± 0.58 % IA/g, the “Biodistribution Muscle” value stood at 0.27 ± 0.11 % IA/g, the “Biodistribution Pancreas” value came out at 0.80 ± 0.32 % IA/g and the “Biodistribution Salivary gland” value was 1.62 ± 0.43 % IA/g. For the same molecule, in the data set on LNCaP xenografts (4 h after injection), the “Biodistribution Spleen” value was 8.33 ± 2.11 % IA/g, the “Biodistribution Stomach” value worked out at 0.47 ± 0.16 % IA/g, the “Ratio Tumor/Blood” value is 42.7 ± 16.4 and the “Ratio Tumor/Kidney” value is 0.04 ± 0.01. In addition, in the data set with LNCaP xenografts (4 h after injection), the “Ratio Tumor/Liver” value is listed as 18.4 ± 8.5 and the “Ratio Tumor/Muscles” value is given as 20.1 ± 2.5.

On to `C[C@@H](O)[C@@H]1NC(=O)[C@H](CCCCN)NC(=O)[C@@H](Cc2c[nH]c3ccccc23)NC(=O)[C@H](Cc2ccc(O)cc2)NC(=O)[C@@H](NC(=O)[C@@H](Cc2ccccc2)NC(=O)CCC(C(=O)O)N2CCN(CC(=O)O)CCN(CC(=O)O)CC2)CSSC[C@@H](C(=O)N[C@H](CO)[C@@H](C)O)NC1=O` (single isomer, unassigned) [[^68Ga]Ga-NODAGA-TOC, metal not drawn], for which the logD in data set [2] (pH 7.4, shake-flask, read-out: log D(O/PBS pH 7.4)) is -2.48 ± 0.3.

Turning to `C[C@@H](O)[C@@H]1NC(=O)[C@H](CCCCN)NC(=O)[C@@H](Cc2c[nH]c3ccccc23)NC(=O)[C@H](Cc2ccc(O)cc2)NC(=O)[C@@H](NC(=O)[C@@H](Cc2ccccc2)NC(=O)CCC(C(=O)O)N2CCN(CC(=O)O)CCN(CC(=O)O)CC2)CSSC[C@@H](C(=O)N[C@H](CO)[C@@H](C)O)NC1=O` (single isomer, unassigned) [[^61Cu]Cu-NODAGA-TOC, metal not drawn], the tissue uptake at 1 h in “in vivo” (Biodistribution HEK-SST2) is 8.88 ± 3.19 %ID/g; in the data set “in vivo” (Biodistribution Kidney) it was 12.5 ± 2.25 %ID/g.

Source of the values: US20240173440A1, “HIGH PURITY COPPER RADIOPHARMACEUTICAL COMPOSITIONS AND DIAGNOSTIC AND THERAPEUTIC USES THEREOF” (Nuclidium AG, priority 2022, published 2024).
